Measurements reported in a compilation of properties of binary mixtures (doi:10.1016/j.molliq.2018.02.064).

Experiment: xn = mol fraction of the nth substance listed
Conditions: 100 kPa

CCCC[n+]1ccn(C)c1.O=S(=O)([N-]S(=O)(=O)C(F)(F)F)C(F)(F)F + CCO
viscosity [mPa·s]
Conditions | x1 = 0.2129 | x1 = 0.2688 | x1 = 0.4215 | x1 = 0.4606 | x1 = 0.5784 | x1 = 0.6609 | x1 = 0.747 | x1 = 0.8264 | x1 = 1
307.85 K | – | – | – | – | – | 15.81 | 19.9 | 23.3 | 34.7
308.15 K | 3.69 | – | 8.06 | 9.01 | 13.11 | – | 19.7 | 23 | 34.3
308.45 K | – | 4.5 | 7.99 | 8.94 | 13 | – | – | 22.8 | 33.9
308.76 K | 3.64 | 4.47 | – | 8.86 | – | 15.39 | – | 22.5 | 33.5
309.06 K | 3.61 | – | 7.86 | 8.79 | 12.77 | 15.25 | 19.2 | 22.3 | 33.1
309.36 K | 3.59 | 4.4 | 7.8 | 8.72 | 12.66 | 15.11 | 19 | 22.1 | 32.8
309.67 K | 3.56 | 4.37 | – | 8.65 | 12.55 | 14.98 | 18.8 | 21.8 | –
309.97 K | 3.54 | 4.34 | 7.67 | – | 12.44 | 14.85 | – | 21.6 | 32.1
310.27 K | 3.52 | 4.31 | 7.61 | 8.51 | 12.33 | 14.71 | 18.4 | 21.4 | 31.7
310.58 K | 3.49 | 4.28 | 7.55 | 8.44 | 12.22 | 14.58 | – | 21.1 | 31.4
310.88 K | – | 4.25 | 7.49 | 8.38 | – | 14.45 | 18.09 | – | 31
311.18 K | 3.44 | 4.22 | 7.43 | – | 12.01 | 14.33 | 17.92 | 20.7 | 30.7
311.48 K | – | 4.19 | 7.37 | 8.24 | 11.91 | 14.2 | 17.75 | 20.5 | 30.4
311.79 K | 3.39 | 4.16 | 7.31 | – | – | 14.07 | – | – | 30.1
312.09 K | 3.37 | – | 7.25 | 8.11 | 11.7 | – | 17.42 | 20.1 | 29.7
312.39 K | 3.35 | – | 7.19 | – | 11.6 | 13.83 | 17.26 | 19.8 | 29.4
312.7 K | 3.32 | – | 7.13 | 7.98 | 11.5 | 13.7 | 17.1 | 19.6 | 29.1
313 K | 3.3 | 4.04 | 7.08 | 7.92 | 11.4 | 13.58 | – | 19.4 | –
313.3 K | 3.28 | 4.02 | – | 7.86 | 11.3 | 13.46 | 16.78 | 19.2 | 28.5
313.61 K | 3.26 | 3.99 | 6.96 | 7.8 | 11.21 | 13.34 | 16.62 | – | 28.2
313.91 K | 3.23 | 3.96 | 6.91 | 7.74 | 11.11 | – | – | 18.8 | 27.9
314.21 K | – | – | 6.86 | 7.68 | 11.02 | 13.11 | – | 18.6 | 27.6
314.52 K | 3.19 | 3.9 | 6.8 | 7.62 | – | 13 | – | 18.5 | 27.3
314.82 K | 3.17 | 3.88 | 6.75 | 7.56 | 10.83 | – | 16.02 | 18.3 | 27.1
315.12 K | 3.14 | 3.85 | 6.7 | 7.5 | 10.74 | 12.77 | 15.87 | – | 26.8
315.42 K | 3.12 | – | 6.64 | 7.44 | 10.64 | – | 15.72 | 17.9 | 26.5
315.73 K | 3.1 | 3.79 | – | 7.38 | – | – | 15.58 | 17.7 | 26.2
316.03 K | 3.08 | – | 6.54 | 7.33 | 10.46 | 12.44 | 15.43 | 17.5 | 26
316.33 K | 3.06 | 3.74 | 6.49 | – | 10.38 | 12.33 | 15.29 | 17.4 | 25.7
316.64 K | 3.03 | 3.71 | – | 7.21 | – | 12.22 | 15.15 | 17.2 | –
316.94 K | 3.01 | 3.69 | 6.39 | 7.16 | 10.2 | – | 15.01 | – | 25.2
317.24 K | 2.99 | 3.66 | 6.34 | 7.1 | 10.11 | – | 14.88 | 16.9 | 24.9
317.55 K | 2.97 | – | – | 7.05 | – | 11.91 | 14.74 | 16.7 | 24.7
317.85 K | 2.95 | 3.61 | – | 6.99 | 9.94 | – | 14.6 | 16.5 | –
318.15 K | 2.93 | – | 6.2 | – | 9.86 | 11.7 | 14.47 | 16.3 | 24.2
318.45 K | 2.91 | 3.56 | 6.15 | 6.89 | 9.78 | 11.6 | 14.34 | – | 23.9
318.76 K | 2.89 | 3.53 | 6.1 | – | – | 11.5 | 14.21 | 16.02 | –
319.06 K | – | 3.51 | 6.06 | 6.78 | 9.61 | 11.4 | 14.08 | 15.86 | 23.5
319.36 K | 2.85 | 3.48 | 6.01 | 6.73 | 9.53 | 11.3 | 13.95 | 15.71 | 23.2
319.67 K | 2.83 | 3.46 | – | 6.68 | 9.45 | 11.2 | – | 15.55 | 23
319.97 K | 2.81 | 3.43 | 5.92 | – | – | 11.1 | 13.7 | 15.4 | 22.8
320.27 K | 2.79 | 3.41 | 5.88 | 6.58 | – | 11.01 | – | – | 22.6
320.58 K | 2.77 | 3.38 | – | 6.53 | 9.22 | 10.91 | 13.45 | 15.09 | 22.3
320.88 K | 2.75 | 3.36 | 5.79 | 6.48 | 9.14 | 10.82 | 13.33 | 14.95 | 22.1
321.18 K | 2.73 | 3.34 | 5.74 | – | 9.06 | – | 13.21 | 14.8 | 21.9
321.48 K | 2.71 | 3.31 | 5.7 | 6.38 | 8.99 | 10.63 | – | 14.66 | 21.7
321.79 K | 2.69 | – | 5.66 | – | 8.91 | 10.54 | 12.97 | 14.51 | 21.5
322.09 K | – | 3.27 | – | 6.29 | 8.84 | 10.45 | 12.86 | 14.37 | –
322.39 K | 2.65 | 3.24 | 5.58 | 6.24 | 8.76 | 10.36 | – | 14.23 | 21.1
322.7 K | 2.63 | 3.22 | 5.53 | 6.19 | 8.69 | 10.27 | – | 14.09 | 20.9
323 K | 2.62 | 3.2 | 5.49 | – | 8.62 | 10.18 | 12.51 | 13.96 | 20.7
